Measured values taken from ChEMBL document CHEMBL4376809, “Discovery of a Potent and Selective Fragment-like Inhibitor of Methyllysine Reader Protein Spindlin 1 (SPIN1)” (J Med Chem, 2019).
Activity calls are given as the source filed them. No cut-off for these calls is given here. Non-standard residues stand in square brackets, D forms with d. Residues, ends and D or L forms follow the SMILES beside them. *: point of attachment. Benzoyl(4-tBu) = CC(C)(C)c1ccc(C(=O)*)cc1; Lys(Et2) = CCN(CC)CCCC[C@H](N)C(=O)O

Tests used:
[1] = target: Histone-lysine N-methyltransferase EHMT1/EHMT2 (Homo sapiens) (UniProt Q9H9B1+Q96KQ7); test: Inhibition of human G9a catalytic domain/GLP catalytic domain in presence of SAM assessed as dissociation constant by isothermal calorimetry assay; format: protein assay
Spindlin-1 [2] = target: T1, Spindlin-1 (Homo sapiens, UniProt Q9Y657)
Spindlin-1 [3] = target: T1, Spindlin-1; test: biochemical
Spindlin-1 [4] = target: T1, Spindlin-1; test: biochemical; remark: listed apart in the source
Spindlin-2B = Spindlin-2B (Homo sapiens, UniProt Q9BPZ2); test: Inhibition of recombinant human N-terminal His6-tagged SPIN2B (45 to 258 residues) expressed in Escherichia coli BL21 (DE3) cells assessed as dissociation constant by isothermal titration calorimetry
Spindlin-3 = Spindlin-3 (Homo sapiens, UniProt Q5JUX0); test: Inhibition of recombinant human N-terminal His6-tagged SPIN3 (27 to 258 residues) expressed in Escherichia coli BL21 (DE3) cells assessed as dissociation constant by isothermal titration calorimetry
Spindlin-4 = target: T2, Spindlin-4 (Homo sapiens, UniProt Q56A73); test: Inhibition of recombinant human N-terminal His6-tagged SPIN4 (36 to 249 residues) expressed in Escherichia coli BL21 (DE3) cells assessed as dissociation constant by isothermal titration calorimetry
T2 sequence (Q56A73 whole entry): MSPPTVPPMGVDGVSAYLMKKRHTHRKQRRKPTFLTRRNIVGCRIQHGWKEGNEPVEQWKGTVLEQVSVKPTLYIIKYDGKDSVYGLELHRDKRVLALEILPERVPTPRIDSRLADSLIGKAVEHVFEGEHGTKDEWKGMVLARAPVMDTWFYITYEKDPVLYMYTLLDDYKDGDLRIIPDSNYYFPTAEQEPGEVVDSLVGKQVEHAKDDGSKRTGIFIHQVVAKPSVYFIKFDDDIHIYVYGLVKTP

C2C12 = test: Cytotoxicity against mouse C2C12 cells assessed as reduction in cell viability up to 30 uM incubated for 6 days by resazurin dye based fluorescence assay; details: c2c12, 144 h
HEK-293T = test: Cytotoxicity against human 293T cells assessed as reduction in cell viability up to 30 uM incubated for 6 days by resazurin dye based fluorescence assay; details: 144 h
HFF-1 = test: Cytotoxicity against human HFF1 cells assessed as reduction in cell viability up to 30 uM incubated for 6 days by resazurin dye based fluorescence assay; details: hff-1, 144 h
Homo sapiens [5] = species on record: Homo sapiens; test: Inhibition of human MLL1/RBBP5/WDR5 trimeric complex up to 50 uM using Biot-H3 (1-25) as substrate and in presence of [3H]-SAM incubated for 1 hr by scintillation proximity assay
Homo sapiens [6] = species on record: Homo sapiens; test: Inhibition of human MLL3/ASH2L/RBBP5/WDR5/DPY30 pentameric complex up to 50 uM using Biot-H3 (1-25) as substrate and in presence of [3H]-SAM incubated for 1 hr by scintillation proximity assay
Homo sapiens [7] = species on record: Homo sapiens; test: Binding affinity to JARID1 (unknown origin) assessed as induction of thermal shifts at 20 uM measured for 25 mins by SYPRO orange dye thermal shift assay
[8] = target: T3, Chromobox protein homolog 7 (Homo sapiens, UniProt O95931); test: Inhibition of CBX7 (unknown origin) assessed as dissociation constant by isothermal titration calorimetry
T3 sequence (O95931 whole entry): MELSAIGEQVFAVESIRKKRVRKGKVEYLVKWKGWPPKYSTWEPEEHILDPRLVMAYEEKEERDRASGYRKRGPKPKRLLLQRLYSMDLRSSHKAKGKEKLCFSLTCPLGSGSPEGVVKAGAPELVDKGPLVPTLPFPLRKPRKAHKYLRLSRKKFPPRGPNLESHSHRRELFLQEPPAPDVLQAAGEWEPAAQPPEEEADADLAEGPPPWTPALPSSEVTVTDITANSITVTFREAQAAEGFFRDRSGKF

[9] = target: T4, E3 SUMO-protein ligase CBX4 (Homo sapiens, UniProt O00257); test: Inhibition of CBX4 (unknown origin) assessed as dissociation constant by isothermal titration calorimetry
T4 sequence (O00257 whole entry): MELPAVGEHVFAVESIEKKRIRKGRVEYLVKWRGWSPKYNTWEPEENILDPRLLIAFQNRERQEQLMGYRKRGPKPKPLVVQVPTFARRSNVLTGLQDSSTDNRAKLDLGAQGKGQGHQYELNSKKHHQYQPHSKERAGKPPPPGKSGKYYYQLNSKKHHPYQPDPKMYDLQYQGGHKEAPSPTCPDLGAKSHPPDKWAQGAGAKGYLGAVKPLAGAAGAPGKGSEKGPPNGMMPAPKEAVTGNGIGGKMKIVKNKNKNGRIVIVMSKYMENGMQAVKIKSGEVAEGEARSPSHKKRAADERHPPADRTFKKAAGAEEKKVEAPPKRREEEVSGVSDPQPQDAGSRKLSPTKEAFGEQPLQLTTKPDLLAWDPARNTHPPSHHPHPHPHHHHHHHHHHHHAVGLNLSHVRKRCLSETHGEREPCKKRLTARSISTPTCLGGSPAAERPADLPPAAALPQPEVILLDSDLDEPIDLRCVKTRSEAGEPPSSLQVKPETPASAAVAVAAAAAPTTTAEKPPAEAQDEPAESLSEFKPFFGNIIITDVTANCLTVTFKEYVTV

Spindlin-1 [10] = target: T1, Spindlin-1; remark: listed apart in the source
Spindlin-1 [11] = target: T1, Spindlin-1; remark: listed apart in the source

T1 sequence (Q9Y657 whole entry): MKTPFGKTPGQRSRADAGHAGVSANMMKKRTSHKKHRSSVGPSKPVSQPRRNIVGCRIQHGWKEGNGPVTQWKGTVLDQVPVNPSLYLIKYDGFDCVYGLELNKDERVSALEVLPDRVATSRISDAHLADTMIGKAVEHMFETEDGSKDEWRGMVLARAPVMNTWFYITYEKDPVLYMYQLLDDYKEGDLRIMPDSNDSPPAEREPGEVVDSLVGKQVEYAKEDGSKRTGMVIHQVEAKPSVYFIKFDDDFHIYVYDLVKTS
Sequence of Histone-lysine N-methyltransferase EHMT1/EHMT2 (Homo sapiens) (Q96KQ7 whole entry, looked up, the tested form may be a part): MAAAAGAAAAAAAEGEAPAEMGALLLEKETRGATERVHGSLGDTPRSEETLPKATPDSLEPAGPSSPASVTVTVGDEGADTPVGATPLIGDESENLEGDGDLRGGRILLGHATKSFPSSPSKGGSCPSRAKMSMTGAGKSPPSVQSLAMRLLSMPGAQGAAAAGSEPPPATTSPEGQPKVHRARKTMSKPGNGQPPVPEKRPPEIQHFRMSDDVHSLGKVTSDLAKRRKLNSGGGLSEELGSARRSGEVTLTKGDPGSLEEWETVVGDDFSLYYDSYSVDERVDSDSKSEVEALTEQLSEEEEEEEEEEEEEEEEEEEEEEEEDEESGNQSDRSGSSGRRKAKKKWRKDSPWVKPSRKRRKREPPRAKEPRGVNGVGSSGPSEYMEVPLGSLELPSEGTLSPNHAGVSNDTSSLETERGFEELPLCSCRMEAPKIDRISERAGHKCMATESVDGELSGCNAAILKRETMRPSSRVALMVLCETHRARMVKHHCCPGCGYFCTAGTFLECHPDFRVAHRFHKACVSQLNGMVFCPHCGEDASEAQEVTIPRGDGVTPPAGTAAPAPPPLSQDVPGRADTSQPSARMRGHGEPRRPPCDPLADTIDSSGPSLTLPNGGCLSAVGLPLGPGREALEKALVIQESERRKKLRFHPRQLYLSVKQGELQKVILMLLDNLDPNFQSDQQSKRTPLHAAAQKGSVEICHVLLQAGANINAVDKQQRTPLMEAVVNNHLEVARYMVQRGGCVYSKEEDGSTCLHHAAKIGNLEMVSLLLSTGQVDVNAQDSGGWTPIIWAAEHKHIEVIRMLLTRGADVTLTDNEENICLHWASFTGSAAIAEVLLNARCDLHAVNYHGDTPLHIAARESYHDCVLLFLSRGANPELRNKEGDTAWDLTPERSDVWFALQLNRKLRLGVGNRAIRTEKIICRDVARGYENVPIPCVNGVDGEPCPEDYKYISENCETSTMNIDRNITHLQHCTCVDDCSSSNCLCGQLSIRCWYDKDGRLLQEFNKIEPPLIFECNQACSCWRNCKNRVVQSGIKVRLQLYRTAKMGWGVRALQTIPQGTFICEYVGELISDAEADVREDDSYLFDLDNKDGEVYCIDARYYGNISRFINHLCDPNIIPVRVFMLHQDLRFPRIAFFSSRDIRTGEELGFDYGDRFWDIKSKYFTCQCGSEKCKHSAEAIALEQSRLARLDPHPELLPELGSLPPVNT
Sequence of Histone-lysine N-methyltransferase EHMT1/EHMT2 (Homo sapiens) (Q9H9B1 whole entry, looked up, the tested form may be a part): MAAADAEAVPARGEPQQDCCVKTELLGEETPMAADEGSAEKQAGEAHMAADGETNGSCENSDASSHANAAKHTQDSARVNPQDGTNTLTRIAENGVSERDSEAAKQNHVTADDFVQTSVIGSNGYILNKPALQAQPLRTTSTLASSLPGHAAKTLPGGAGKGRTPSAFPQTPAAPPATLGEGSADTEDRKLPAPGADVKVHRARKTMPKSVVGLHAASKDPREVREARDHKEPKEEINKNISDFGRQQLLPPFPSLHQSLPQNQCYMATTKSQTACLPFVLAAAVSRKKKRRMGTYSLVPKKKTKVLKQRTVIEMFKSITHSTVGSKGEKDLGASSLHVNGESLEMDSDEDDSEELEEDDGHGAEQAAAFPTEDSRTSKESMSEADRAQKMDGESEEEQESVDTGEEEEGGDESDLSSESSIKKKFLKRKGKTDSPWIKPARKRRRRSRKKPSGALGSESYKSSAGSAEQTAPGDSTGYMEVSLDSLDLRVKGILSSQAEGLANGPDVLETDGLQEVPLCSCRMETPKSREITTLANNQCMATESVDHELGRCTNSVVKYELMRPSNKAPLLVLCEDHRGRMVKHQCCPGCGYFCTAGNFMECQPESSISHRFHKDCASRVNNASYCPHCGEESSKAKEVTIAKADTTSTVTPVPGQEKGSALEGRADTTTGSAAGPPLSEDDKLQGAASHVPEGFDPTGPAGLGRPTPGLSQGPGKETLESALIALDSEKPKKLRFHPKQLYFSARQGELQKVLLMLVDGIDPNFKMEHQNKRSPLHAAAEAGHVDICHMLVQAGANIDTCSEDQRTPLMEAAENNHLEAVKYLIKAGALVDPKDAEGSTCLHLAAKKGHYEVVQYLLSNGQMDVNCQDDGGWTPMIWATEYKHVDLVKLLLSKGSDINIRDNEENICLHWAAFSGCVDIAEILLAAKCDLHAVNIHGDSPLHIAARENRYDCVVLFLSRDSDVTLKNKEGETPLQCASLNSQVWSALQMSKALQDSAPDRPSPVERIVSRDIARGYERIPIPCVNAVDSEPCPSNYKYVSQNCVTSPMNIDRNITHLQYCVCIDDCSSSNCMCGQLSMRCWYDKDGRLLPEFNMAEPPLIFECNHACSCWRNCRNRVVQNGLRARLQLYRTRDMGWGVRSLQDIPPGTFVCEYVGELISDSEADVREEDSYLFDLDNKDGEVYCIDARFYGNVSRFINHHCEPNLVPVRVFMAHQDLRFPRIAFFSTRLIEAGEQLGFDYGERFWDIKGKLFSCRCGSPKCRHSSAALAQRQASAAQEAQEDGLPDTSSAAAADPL
Sequence of Spindlin-2B (Q9BPZ2 whole entry, the tested form may be a part): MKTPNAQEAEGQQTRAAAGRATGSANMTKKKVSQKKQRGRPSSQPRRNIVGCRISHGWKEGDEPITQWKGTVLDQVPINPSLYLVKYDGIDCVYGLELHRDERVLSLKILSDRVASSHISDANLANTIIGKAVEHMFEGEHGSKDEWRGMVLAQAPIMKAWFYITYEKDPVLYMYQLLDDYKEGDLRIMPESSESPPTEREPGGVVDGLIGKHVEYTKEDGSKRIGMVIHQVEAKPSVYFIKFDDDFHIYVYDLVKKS
Sequence of Spindlin-3 (Q5JUX0 whole entry, the tested form may be a part): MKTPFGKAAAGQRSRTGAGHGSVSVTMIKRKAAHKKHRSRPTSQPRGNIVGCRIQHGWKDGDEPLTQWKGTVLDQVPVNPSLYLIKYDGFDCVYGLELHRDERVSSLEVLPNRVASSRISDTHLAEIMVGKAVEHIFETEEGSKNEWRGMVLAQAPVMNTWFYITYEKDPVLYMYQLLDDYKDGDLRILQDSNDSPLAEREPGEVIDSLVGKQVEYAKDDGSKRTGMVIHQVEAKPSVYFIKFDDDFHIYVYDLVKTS

SMILES: COc1c(CN)cc(CN)cc1OCCCN1CCCC1
- inhibition [1]: inactive
- Kd (Spindlin-1 [2]; read-out: Kd): 390 nM
- IC50 (Spindlin-1 [3]): 741 nM
- IC50 (Spindlin-1 [4]): 338 nM

SMILES: COc1c(CN)cc(CN)cc1OCCCN1Cc2ccccc2C1
- Kd (Spindlin-2B): 170 to 1700 nM
- inhibition [1]: inactive
- Kd (Spindlin-3): 170 to 1700 nM
- Kd (Spindlin-4): 170 to 1700 nM
- Activity (C2C12): Non-Toxic
- Activity (HEK-293T): Non-Toxic
- Activity (HFF-1): Non-Toxic
- inhibition (Homo sapiens [5]): inactive
- inhibition (Homo sapiens [6]): inactive
- Activity (Homo sapiens [7]): inactive

SMILES: CCN(CC)CCCC[C@H](NC(=O)[C@H](CC(C)C)NC(=O)[C@H](C)NC(=O)[C@H](C)NC(=O)c1ccc(C(C)(C)C)cc1)C(=O)N[C@@H](CO)C(=O)OC ({Benzoyl(4-tBu)}-AAL[Lys(Et2)]S-OMe)
- Kd [8]: 97 nM
- Kd [9]: 94 nM

SMILES: COc1c(CN)cc(C(N)=O)cc1OCCCN1Cc2ccccc2C1
- Kd (Spindlin-1 [2]): Not Active
- IC50 (Spindlin-1 [10]): Not Active
- IC50 (Spindlin-1 [11]): Not Active
